# In patent US7947726B2, “Non-steroidal ligands for the glucocorticoid receptor, and compositions thereof” (The Regents of the University of California, priority 2002, dated 2011):
# Experiments:
# [1] = tested on: NF-κB; assay: NF-κB repression luciferase assay in A549 cells; assay type: cell-based, human; conditions: Table 5, TNF-α-stimulated A549 cells
# Description: Plasmids for GR (human, pSG5 backbone), AP1-Luc (synthetic AP1 response element upstream of a firefly luciferase gene), TAT3-Luc (three copies of the tyrosine aminotransferase glucocorticoid response element upstream of a firefly luciferase gene), β-galactosidase (used as a transfection control), as well as two stable transfected cells lines: an A549 (human, lung carcinoma) cell line stably transfected with a κB response element upstream of a firefly luciferase gene, (R. M. Nissen et al., Genes Dev., 14(18):2314-29, (2000)) and a U2OS (human, osteosarcoma) stably transfected with rat GR (I. Rogatsky, et al., Mol. Cell. Biol., 1997, 17, 3181-3193) were a gift of Professor Keith Yamamoto (Department of Biochemistry, University of California, San Francisco).
# For NF-κB repression assays, A549 cells stably transfected with a luciferase reporter were grown under the same conditions as CV-1 cells. 50,000 cells/well were plated into 96 well plates and incubated for 12 h at 37° C. Either TNF-α alone or mixed with various hormone dilutions in media were then added to the cells, which were then incubated for 8 hours. Procedures for lysis and luciferase assay were performed as previously described. Protein content was used as a control in this case and the recommended procedures using the BCA Protein Assay Kit (Roche) were followed.
# [2] = target: T1, AR (Homo sapiens, UniProt P10275); assay: AR activation (max fold activation); assay type: cell-based; conditions: Table 4
# T1 sequence (P10275 1-920): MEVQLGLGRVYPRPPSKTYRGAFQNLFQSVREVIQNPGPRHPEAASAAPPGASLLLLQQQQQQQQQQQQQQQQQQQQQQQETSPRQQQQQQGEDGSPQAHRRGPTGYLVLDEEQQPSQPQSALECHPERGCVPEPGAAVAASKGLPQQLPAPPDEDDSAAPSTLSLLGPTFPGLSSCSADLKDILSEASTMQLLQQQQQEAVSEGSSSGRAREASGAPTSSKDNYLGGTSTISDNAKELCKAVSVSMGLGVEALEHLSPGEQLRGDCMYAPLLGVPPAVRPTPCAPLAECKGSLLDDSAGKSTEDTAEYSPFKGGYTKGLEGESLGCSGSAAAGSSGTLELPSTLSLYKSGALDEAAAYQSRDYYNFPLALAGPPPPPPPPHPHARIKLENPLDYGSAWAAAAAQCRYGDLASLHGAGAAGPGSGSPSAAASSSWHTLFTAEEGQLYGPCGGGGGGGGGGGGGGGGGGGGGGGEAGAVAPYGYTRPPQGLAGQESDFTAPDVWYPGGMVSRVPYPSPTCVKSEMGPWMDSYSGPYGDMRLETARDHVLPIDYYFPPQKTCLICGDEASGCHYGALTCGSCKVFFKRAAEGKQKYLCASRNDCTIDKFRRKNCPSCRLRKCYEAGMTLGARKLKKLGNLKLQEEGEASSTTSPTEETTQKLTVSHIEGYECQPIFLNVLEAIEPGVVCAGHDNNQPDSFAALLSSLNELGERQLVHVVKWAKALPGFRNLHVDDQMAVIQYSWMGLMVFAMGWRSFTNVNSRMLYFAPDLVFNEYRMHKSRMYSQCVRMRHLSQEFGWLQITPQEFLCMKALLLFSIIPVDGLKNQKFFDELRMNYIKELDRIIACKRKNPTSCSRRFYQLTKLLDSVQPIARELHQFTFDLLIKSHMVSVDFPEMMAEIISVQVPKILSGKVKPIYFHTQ
SMILES,"EC50 ([1]; Homo sapiens, read-out: Repression NF-KB pot (EC50)) [nM]",Repression NF-KB % max repression [1] [%],AR max fold activation [2]
"CC12Cc3cnn(-c4ccc(F)cc4)c3C=C1CCCC2C(O)c1cccc2[nH]ccc12 (stereo not drawn) [Compound 237, [1-(4-Fluoro-phenyl)-4a-methyl-4,4a,5,6,7,8-hexahydro-1H-benzo[f]indazol-5-yl]-(1H-indol-4-yl)-methanol]",26.4,74,
"Cc1cc(O)cc(C)c1C(O)C1CCCC2=Cc3c(cnn3-c3ccc(F)cc3)CC21C (stereo not drawn) [Compound 227, 4-{[1-(4-Fluoro-phenyl)-4a-methyl-4,4a,5,6,7,8-hexahydro-1H-benzo[f]indazol-5-yl]-hydroxy-methyl}-3,5-dimethyl-phenol]",,,4.6 ± 1.6
